# Laboratory results: PubChem BioAssay (NCI)
#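 96-well plates; 48 h exposure; 5 concentrations. Endpoints by linear interpolation between flanking doses. Not reached: highest tested concentration assigned. Here, GI50 denotes the concentration required for 50% inhibition of growth. TGI: concentration producing complete growth inhibition.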
# What was measured:
# Assay in all cases: NCI anticancer screen, dose series, 48 h
# A549 NSCLC = tested on: A549 NSCLC
# ACHN renal = tested on: ACHN renal
# CAKI-1 renal = tested on: CAKI-1 renal
# MDA-MB-231 breast = tested on: MDA-MB-231 breast
# OVCAR-8 ovarian = tested on: OVCAR-8 ovarian
# SF-268 CNS = tested on: SF-268 CNS
# SF-539 CNS = tested on: SF-539 CNS
# SK-MEL-5 melanoma = tested on: SK-MEL-5 melanoma
# SW-620 colon = tested on: SW-620 colon
# EKVX NSCLC = tested on: EKVX NSCLC
SMILES,GI50 (A549 NSCLC) [µM],TGI (A549 NSCLC) [µM],GI50 (ACHN renal) [µM],TGI (ACHN renal) [µM],GI50 (CAKI-1 renal) [µM],TGI (CAKI-1 renal) [µM],GI50 (MDA-MB-231 breast) [µM],TGI (MDA-MB-231 breast) [µM],GI50 (OVCAR-8 ovarian) [µM],TGI (OVCAR-8 ovarian) [µM],GI50 (SF-268 CNS) [µM],TGI (SF-268 CNS) [µM],GI50 (SF-539 CNS) [µM],TGI (SF-539 CNS) [µM],GI50 (SK-MEL-5 melanoma) [µM],TGI (SK-MEL-5 melanoma) [µM],GI50 (SW-620 colon) [µM],TGI (SW-620 colon) [µM],TGI (EKVX NSCLC) [µM]
Cn1cc(C2=C(c3cn(CCCCCN)c4ccccc34)C(=O)NC2=O)c2ccccc21,10.1,> 25,10.9,> 25,8.25,> 25,17.1,> 25,11,> 25,12.5,> 25,6.42,21.6,7.46,> 19.7,9.64,> 25,
Cc1cc(NS(=O)(=O)c2ccc(Nc3c4ccccc4nc4c(C(=O)NCCN(C)C)cccc34)cc2)no1,,71,,19,,,,,,> 100,,16.4,,15.2,,11.8,,> 100,30.1
CCOC(=N)CC(=O)Nc1cccc(C)c1C,,> 100,,> 100,,> 100,,,,> 100,,> 100,,> 100,,> 100,,> 100,> 100
CCCCOC(=O)NC(=O)c1cn(CCCOC(=O)NCCCCCCNC(=O)OCCCn2cc(C(=O)NC(=O)OCCCC)c(=O)[nH]c2=O)c(=O)[nH]c1=O,,> 100,,> 100,,,,,,> 100,,> 100,,> 100,,> 100,,> 100,> 100
CC(C)CCCC(C)[C@H]1CCC2[C@H]3C(CC[C@@]21C)[C@@]1(C)CCC=C[C@]12C[C@@H]2[C@@H]3O (some centres undefined),,> 100,,> 100,,> 100,,,,> 100,,> 100,,> 100,,> 100,,> 100,> 100
Nc1ccn(C2(CO)C=C(CO)C(O)C2O)c(=O)n1 (centres undefined),,> 25.8,,> 25.8,,> 25.8,,,,> 25.8,,> 25.8,,> 25.8,,> 25.8,,> 25.8,> 25.8
COC(=O)/C(C=O)=C/Sc1ccccc1,,> 100,,> 100,,62,,,,31.8,,33,,33.2,,85.2,,> 100,> 100
COC(=O)OCC1OC(N2C(=O)NC(=O)C(Br)C2N=[N+]=[N-])CC1OC(=O)OC (centres undefined),,> 100,,> 100,,> 100,,,,> 100,,> 100,,> 100,,> 100,,> 100,
COc1cc2ccc3c4cc(OC)c(OC(C)C)cc4cnc3c2cc1OC,,> 100,,> 100,,> 100,,,,> 100,,> 100,,> 100,,> 100,,> 100,> 100
O=[N+]([O-])c1ccc2c(c1)C(c1ccccc1Cl)=Nc1cn[nH]c1N2,19.7,> 25,14.4,> 25,12.7,> 25,14.6,> 25,17.9,> 25,> 23.9,> 25,14.6,> 25,11.3,> 25,15.8,> 25,
CN[C@@H](C)[C@H](NC)c1ccccc1,,> 100,,,,> 100,,,,> 100,,,,> 100,,> 100,,> 100,> 100
COC(=O)/C(C)=C/[N+](=O)[O-],,44.1,,35.5,,8.14,,,,63.3,,51.6,,33.2,,47.3,,26.8,63.6
Nc1nc(CCl)nc(Nc2ccccc2)n1,,79.4,,66.1,,24.8,,,,> 100,,45.2,,70.7,,36.5,,46.3,
Cc1ccc(C2(O)CC(c3ccc([N+](=O)[O-])o3)=NN2C(=O)COc2ccc(Cl)cc2)cc1 (centres undefined),,56.4,,43.1,,67.5,,,,20.3,,28.1,,15.4,,6.6,,10.6,18.8
C=CCNC(=O)N(CCC)CCCCC(NC(C)=O)C(=O)NCc1ccccc1 (centres undefined),,> 100,,> 100,,> 100,,,,> 100,,> 100,,> 100,,> 100,,> 100,> 100
CN(C)C(=S)/N=c1\ss/c(=N\C(=S)N(C)C)n1-c1ccc(Cl)c(Cl)c1,,> 100,,> 100,,> 100,,,,> 100,,> 100,,> 100,,> 100,,> 100,> 100
COC(=O)/C(C#N)=C1\CCC(O)N1 (centres undefined),,> 100,,> 100,,> 100,,,,> 100,,> 100,,> 100,,,,> 100,> 100
C=C1C[C@]23CCC4C(C)(C)C(=O)CC[C@]4(C)C2C[C@H]1C(O)C3=O (some centres undefined),,> 75,,> 75,,,,,,> 75,,> 75,,> 75,,> 75,,> 75,> 75
COc1cc2cccc(N=Cc3cccc(OC)c3OC(C)C)c2cc1OC,,86.5,,> 100,,42.9,,,,53.1,,91.4,,,,53.9,,48.8,> 100
CC1(C)O/C(=C\c2ccccc2)C(=O)/C(=C/c2ccccc2)O1,,> 100,,> 100,,> 100,,,,> 100,,> 100,,> 100,,27.9,,> 100,> 100
O=C(Nc1cc(Cl)ccc1Cl)C(=O)C(c1cnc2ccccc2n1)[N+](=O)[O-] (centres undefined),,> 100,,> 100,,> 100,,,,> 100,,> 100,,> 100,,> 100,,> 100,> 100
CN1NC(=Nc2ccccc2)Sc2c1cnn(-c1ccccc1)c2=O,,> 100,,> 100,,,,,,> 100,,,,> 100,,,,> 100,> 100
